These results are taken from PubChem BioAssay AID330 (DTP/NCI, 2004).

In the assay the test system is P388 leukemia ip, CD2F1 mice, survival T/C. Description: NCI In Vivo Anticancer Drug Screen. Data for tumor model P388 Leukemia (intraperitoneal) in CD2F1 (CDF1) mice. Particulars: endpoint: median survival time, higher = longer survival. In a few lines: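 Mice carrying the transplanted tumor received test compound or vehicle. Survival was recorded in each group, and the value is the treated-group measurement divided by that of the vehicle-treated control group.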

Where [1] appears, read: dose: 50.0 mg/kg/injection, schedule: Q01DX005 (ip), vehicle: Klucel (hydroxypropylcellulose) (HPC).
Where [2] appears, read: dose: 100.0 mg/kg/injection, schedule: Q01DX005 (ip), vehicle: Klucel (hydroxypropylcellulose) (HPC).
Where [3] appears, read: dose: 200.0 mg/kg/injection, schedule: Q01DX005 (ip), vehicle: Klucel (hydroxypropylcellulose) (HPC).
The mark [4] stands for this setting: dose: 100.0 mg/kg/injection, schedule: Q01DX001 (ip), vehicle: saline with Tween-80.
Where [5] appears, read: dose: 200.0 mg/kg/injection, schedule: Q01DX001 (ip), vehicle: saline with Tween-80.
Where [6] appears, read: dose: 400.0 mg/kg/injection, schedule: Q01DX001 (ip), vehicle: saline with Tween-80.
Where [7] appears, read: dose: 50.0 mg/kg/injection, schedule: Q01DX009 (ip), vehicle: saline with Tween-80.
Where [8] appears, read: dose: 100.0 mg/kg/injection, schedule: Q01DX009 (ip), vehicle: saline with Tween-80.
[9] abbreviates: dose: 60.0 mg/kg/injection, schedule: Q01DX005 (ip), vehicle: saline with Tween-80.
[10] abbreviates: dose: 120.0 mg/kg/injection, schedule: Q01DX005 (ip), vehicle: saline with Tween-80.

Structures are written as SMILES. Where “and” joins values, the source holds several entries; their conditions need not be identical. Equal entries are not always repeated. Inconclusive results and toxic doses are left out.

As for `Cc1ccc(N=C(c2ccccc2)C2C(=O)c3ccccc3C2=O)cc1`, the T/C under setting [1] was 97 % of control, the T/C under setting [2] was 97 % of control and the T/C under setting [3] is 94 % of control.

As to `COC(=O)NCCn1c([N+](=O)[O-])cnc1C`, the T/C is 99 % of control under setting [4], 98 % of control under setting [5] and 106 % of control under setting [6].

As to `[Pd].c1ccc([PH+](CC[PH+](c2ccccc2)c2ccccc2)c2ccccc2)cc1.c1ccc([PH+](CC[PH+](c2ccccc2)c2ccccc2)c2ccccc2)cc1`, the T/C (dose: 30.0 mg/kg/injection, schedule: Q01DX005 (ip), vehicle: saline with Tween-80) is 99 % of control.

Regarding `Cc1cc2cccc(Br)c(=O)c2o1`, the T/C is 95 % of control (dose: 6.25 mg/kg/injection, schedule: Q01DX001 (ip), vehicle: saline with Tween-80); 100 % of control (dose: 12.5 mg/kg/injection, schedule: Q01DX001 (ip), vehicle: saline with Tween-80); 104 % of control (dose: 25.0 mg/kg/injection, schedule: Q01DX001 (ip), vehicle: saline with Tween-80).

Turning to `COc1ccc(Cl)c2c1[nH]c1nc3nc4cc(Cl)ccc4n3nc12`, the T/C reads like this: (dose: 12.5 mg/kg/injection, schedule: Q01DX005 (ip), vehicle: saline with Tween-80) 90 % of control; (dose: 25.0 mg/kg/injection, schedule: Q01DX005 (ip), vehicle: saline with Tween-80) 94 % of control; (dose: 50.0 mg/kg/injection, schedule: Q01DX005 (ip), vehicle: saline with Tween-80) 101 % of control and 105 % of control; (dose: 100.0 mg/kg/injection, schedule: Q01DX005 (ip), vehicle: saline with Tween-80) 105 % of control; (dose: 200.0 mg/kg/injection, schedule: Q01DX005 (ip), vehicle: saline with Tween-80) 111 % of control.

On to `COP(=O)(CC(=O)CCCCCO)OC`, for which the T/C by setting is: (dose: 60.0 mg/kg/injection, schedule: Q01DX005 (ip), vehicle: saline) 114 % of control; (dose: 120.0 mg/kg/injection, schedule: Q01DX005 (ip), vehicle: saline) 107 % of control; (dose: 240.0 mg/kg/injection, schedule: Q01DX005 (ip), vehicle: saline) 107 % of control.

For the molecule `Cc1ccc2cccc([N+](=O)[O-])c2n1`, the T/C by setting is: (dose: 12.5 mg/kg/injection, schedule: Q04DX003 (ip), vehicle: saline with Tween-80) 100 % of control; (dose: 25.0 mg/kg/injection, schedule: Q04DX003 (ip), vehicle: saline with Tween-80) 104 % of control; (dose: 50.0 mg/kg/injection, schedule: Q04DX003 (ip), vehicle: saline with Tween-80) 95 % of control.

`O=c1c2ccccc2nc(CN(CCCl)CCCl)n1-c1ccc(O)c(CN(CCCl)CCCl)c1`: the T/C under setting [4] was 151 % of control, the T/C under setting [5] was 155 % of control and the T/C under setting [6] was 270 % of control.

In the case of `CC12CCC3c4ccc(OP(=O)(N5CC5)N5CC5)cc4CCC3C1CCC2O` (configuration not stated), the T/C was 96 % of control and 97 % of control (dose: 12.5 mg/kg/injection, schedule: Q01DX009 (ip), vehicle: saline with Tween-80); 110 % of control and 96 % of control (dose: 25.0 mg/kg/injection, schedule: Q01DX009 (ip), vehicle: saline with Tween-80); 100 % of control and 92 % of control under setting [7]; 115 % of control under setting [8].

Consider `CNC(=O)OCc1c(COC(=O)NC)c(-c2ccc(-c3ccccc3)cc2)n(C)c1C`, for which the T/C (dose: 2.5 mg/kg/injection, schedule: Q01DX009 (ip), vehicle: distilled water + Tween-80) was 154 % of control; the T/C (dose: 5.0 mg/kg/injection, schedule: Q01DX009 (ip), vehicle: distilled water + Tween-80) is 152 % of control; the T/C (dose: 10.0 mg/kg/injection, schedule: Q01DX009 (ip), vehicle: distilled water + Tween-80) was 151 % of control; the T/C (dose: 15.0 mg/kg/injection, schedule: Q01DX009 (ip), vehicle: distilled water + Tween-80) is 153 % of control; the T/C (dose: 20.0 mg/kg/injection, schedule: Q01DX009 (ip), vehicle: distilled water + Tween-80) is 94 % of control.

Turning to `O=c1c2ccccc2nc2n1CCC/C2=C\c1ccc(Cl)cc1`, the T/C is 97 % of control (dose: 92.5 mg/kg/injection, schedule: Q04DX002 (ip), vehicle: Klucel (hydroxypropylcellulose) (HPC)); 105 % of control (dose: 185.0 mg/kg/injection, schedule: Q04DX002 (ip), vehicle: Klucel (hydroxypropylcellulose) (HPC)); 97 % of control (dose: 370.0 mg/kg/injection, schedule: Q04DX002 (ip), vehicle: Klucel (hydroxypropylcellulose) (HPC)).

`CCc1c2c(cc3c1[nH]c1ccccc13)C(=O)N(c1ccc(OC)cc1)C2=O`: the T/C under setting [1] was 92 % of control, the T/C under setting [2] is 91 % of control and the T/C under setting [3] was 90 % of control.

Turning to `O=c1c(-c2ccccc2)c(O)on1/C=C1/C=CC=N1`, the T/C is 105 % of control under setting [7]; 95 % of control under setting [8]; 103 % of control (dose: 200.0 mg/kg/injection, schedule: Q01DX009 (ip), vehicle: saline with Tween-80).

Consider `NC(=S)c1ccc(N=Cc2cccc([N+](=O)[O-])c2)cc1`, for which the T/C is 98 % of control (dose: 100.0 mg/kg/injection, schedule: Q01DX001 (ip), vehicle: Klucel (hydroxypropylcellulose) (HPC)); 124 % of control (dose: 200.0 mg/kg/injection, schedule: Q01DX001 (ip), vehicle: Klucel (hydroxypropylcellulose) (HPC)); 104 % of control (dose: 400.0 mg/kg/injection, schedule: Q01DX001 (ip), vehicle: Klucel (hydroxypropylcellulose) (HPC)).

As to `O=C1NC(c2ccccc2Cl)Nc2ccccc21` (configuration not stated), the T/C was 94 % of control (dose: 50.0 mg/kg/injection, schedule: Q01DX009 (ip), vehicle: Klucel (hydroxypropylcellulose) (HPC)); 92 % of control (dose: 100.0 mg/kg/injection, schedule: Q01DX009 (ip), vehicle: Klucel (hydroxypropylcellulose) (HPC)); 95 % of control (dose: 200.0 mg/kg/injection, schedule: Q01DX009 (ip), vehicle: Klucel (hydroxypropylcellulose) (HPC)); 90 % of control (dose: 400.0 mg/kg/injection, schedule: Q01DX009 (ip), vehicle: Klucel (hydroxypropylcellulose) (HPC)).

Consider `C/C(C=O)=C\c1ccc2c(c1)OCO2`, for which the T/C was 104 % of control under setting [1], 97 % of control under setting [2] and 106 % of control under setting [3].

Take `CC(C)N=Cc1ccccc1O.CC(C)N=Cc1ccccc1O.[Zn]`: the T/C runs as follows: (dose: 25.0 mg/kg/injection, schedule: Q04DX003 (ip), vehicle: saline sonified) 100 % of control; (dose: 50.0 mg/kg/injection, schedule: Q04DX003 (ip), vehicle: saline sonified) 100 % of control; (dose: 100.0 mg/kg/injection, schedule: Q04DX003 (ip), vehicle: saline sonified) 104 % of control.

For `CCOC(=O)C1=C(C)Oc2cc3c(cc2C1c1ccc(OC)cc1)OCO3` (configuration not stated), the T/C under setting [9] is 105 % of control; the T/C under setting [10] is 105 % of control; the T/C (dose: 240.0 mg/kg/injection, schedule: Q01DX005 (ip), vehicle: saline with Tween-80) was 94 % of control.

Regarding `Nc1ccc2snc3c2c1C(=O)c1ccccc1-3`, the T/C was 99 % of control under setting [1], 91 % of control under setting [2] and 100 % of control under setting [3].

On to `COC(=O)c1cc(NC(=O)O/N=C/c2cccnc2)cc(C(=O)OC)c1`, for which the T/C is, setting by setting: (dose: 50.0 mg/kg/injection, schedule: Q01DX009 (ip), vehicle: saline) 103 % of control; (dose: 100.0 mg/kg/injection, schedule: Q01DX009 (ip), vehicle: saline) 91 % of control.

With `OC1CC2CCc3[nH]c4ccccc4c3CCN(C1)C2` (configuration not stated), the T/C is 91 % of control (dose: 5.5 mg/kg/injection, schedule: Q01DX005 (ip), vehicle: Klucel (hydroxypropylcellulose) (HPC)); 96 % of control (dose: 11.0 mg/kg/injection, schedule: Q01DX005 (ip), vehicle: Klucel (hydroxypropylcellulose) (HPC)); 100 % of control (dose: 22.0 mg/kg/injection, schedule: Q01DX005 (ip), vehicle: Klucel (hydroxypropylcellulose) (HPC)); 100 % of control (dose: 44.0 mg/kg/injection, schedule: Q01DX005 (ip), vehicle: Klucel (hydroxypropylcellulose) (HPC)).

Consider `COc1ccc(S(N)(=O)=O)cc1[N+](=O)[O-]`, for which the T/C by setting is: (dose: 100.0 mg/kg/injection, schedule: Q04DX003 (ip), vehicle: Klucel (hydroxypropylcellulose) (HPC)) 97 % of control; (dose: 200.0 mg/kg/injection, schedule: Q04DX003 (ip), vehicle: Klucel (hydroxypropylcellulose) (HPC)) 104 % of control; (dose: 400.0 mg/kg/injection, schedule: Q04DX003 (ip), vehicle: Klucel (hydroxypropylcellulose) (HPC)) 97 % of control.

With `C=CC(N)[Si](CC)(CC)CC` (configuration not stated), the T/C was 106 % of control under setting [9] and 101 % of control under setting [10].
